28 compounds from ChEMBL document CHEMBL5729557, “5-membered heteroaryl carboxamide compounds for treatment of HBV” (2023) can be followed below.

Bounds are passed on as bounds.

The nature of the first experiment: Assay Measuring Activity of Test Compounds on Viral Production from HepAD38 Cells: HepAD38 cells grown in a T-150 flask (Corning, cat #: 430825) with Growth Medium (DMEM/F12 (1:1) (Hyclone, cat #: SH30023.02), 1× Pen/Strep (Invitrogen, cat #: 15140-122), 10% FBS (Tissue Culture Biologics, cat #: 101), 250 μg/mL G418 (Alfa Aesar, cat #: J62671), 1 μg/mL Tetracycline (Teknova, cat #: T3320)) were detached with 0.25% trypsin-EDTA to (Invitrogen, cat #: 25200-056). Tetracycline-free treatment medium (15 mL DMEM/F12 (1:1) 1× Pen/step, with 2% FBS, Tet-system approved (Clontech, cat #: 631106) were then added to mix, transferred into a 50 ml conical tube (Falcon, cat #: 21008-918,) and spun at 1300 rpm for 5 min. Pelleted cells were then re-suspended/washed with 50 mL of 1×DPBS (Invitrogen, cat #: 14190-136) 2 times and 50 mL treatment medium twice. HepAD38 cells were then re-suspended with 10 mL of treatment medium, syringed and counted. Wells of 96-well clear bottom TC plate (Corning, cat #: 3904,) were seeded at 50,000 cells/well in 180 μL of treatment medium, and 20 μL of either 10% DMSO (Sigma, cat #: D4540) as controls or a 10× solution of test compounds in 10% DMSO in treatment media was added for a final compound concentration starting at 10 μM, and plates were incubated in 5% CO2 incubator at 37° C. for 5 days.Subsequently viral load production was assayed by quantitative PCR (qPCR) of the HBV core sequence. PCR reaction mixture containing forward primers HBV-f 5′-CTGTGCCTTGGGTGGCTTT-3′ (IDT DNA), Reverse primers HBV-r 5′-[…]-3′ (IDT DNA), Fluorescent TaqMan™ Probes HBV-probe 5′-FAM/AGCTCCAAA/ZEN/[…]/3IABkFQ-3′ (IDT DNA), 10 μL/well of PerfeCTa® qPCR ToughMix® (Quanta Biosciences, Cat #: 95114-05K), and 6 μL/well of DEPC water (Alfa Aesar, cat #: J62087) was prepared. […] of supernatant was added to 16 μL of the reaction mixture in a qPCR plate (Applied Biosytems, Cat #: 4309849), sealed with a film (Applied Biosystems, Cat #: 4311971), centrifuged for a few seconds, and subsequently run on an Applied Biosystems VIIA7. The PCR mixture was incubated at 45° C. for 5 min, then 95° C. for 10 min, followed by 40 cycles of 10 seconds at 95° C. and 20 seconds at 60° C. Viral load was quantified against known HBV DNA standards by using ViiA™ 7 Software. Viral load in the supernatant from wells with treated cells were compared against viral load in supernatant from DMSO control wells (>3 per plate). Cell viability assay was performed with CellTiter-Glo Luminescent Cell Viability Assay (Promega, cat #: G7573) with modification. Mixed appropriate amount of CellTiter-Glo (CTG) 1×DPBS in a 1:1 ratio, added 100 uL of the mixture to each well followed completely removal of all supernatant in each well without touching cell surface. Incubated the plate at room temperature for 10 min on an orbital shaker, and then read the plate with a plate reader (TECAN M1000 or Envision).
Details: not given
Regarding `COc1ccc([C@H]2CC[C@H](c3nn(C)c(N)c3C(=O)Nc3ccc(F)c(Cl)c3)C2)cc1`, the EC50 was less than 100 nM.

The same experiment, now with this note: HePAD38.
With `CC(C)OCC1(O)CC2C[C@@H](c3nn(C)c(N)c3C(=O)Nc3ccc(F)c(Cl)c3)C[C@@H]2C1` (some centres undefined), the EC50 entry is “in the range around 300 nM”.
`Cn1nc(C2CC3CN(S(C)(=O)=O)CC3C2)c(C(=O)Nc2ccc(F)c(Cl)c2)c1N` (centres undefined): the EC50 is less than 100 nM.
Consider `CC(=O)NC1CC2CC(c3nn(C)c(N)c3C(=O)Nc3ccc(F)c(Cl)c3)CC2C1` (centres undefined), for which the EC50 was less than 100 nM.
As to `Cn1nc([C@@H]2CC3CC(O)(CS(=O)(=O)C4CC4)C[C@@H]3C2)c(C(=O)Nc2ccc(F)c(Cl)c2)c1N` (some centres undefined), the EC50 is less than 100 nM.
With `CC(C)S(=O)(=O)N1CC2CC(c3nn(C)c(N)c3C(=O)Nc3ccc(F)c(Cl)c3)CC2C1` (centres undefined), the EC50 was less than 100 nM.
On the same count and under the same terms, under `COc1cc(-c2ncc[nH]2)ccc1[C@H]1CC[C@@H](c2nn(C)c(N)c2C(=O)Nc2ccc(F)c(Cl)c2)C1` stands “in the range around 5250 nM”; under `Cn1nc([C@@H]2CC3CC(O)(CS(=O)(=O)C4CC4)C[C@H]3C2)c(C(=O)Nc2ccc(F)c(Cl)c2)c1N` (some centres undefined), less than 100 nM.
On to `COc1ccc([C@H]2CC[C@H](c3nn(C)c(N)c3C(=O)Nc3ccc(F)c(Cl)c3)C2)cc1`, for which the EC50 is less than 100 nM.
Still for that read-out and setting: under `Cn1nc(C2CCC(c3ccc(OC(F)(F)F)cc3)C2)c(C(=O)Nc2ccc(F)c(Cl)c2)c1N` (centres undefined) stands “in the range around 5250 nM”.
Regarding `Cn1cc(C(=O)Nc2ccc(F)c(Cl)c2)c(C2CC3CC(=O)CC3C2)n1` (centres undefined), the EC50 result was “in the range around 5250 nM”.
Same read-out and setting: under `Cn1nc([C@@H]2CC3CC(O)(CSCC(F)(F)F)C[C@@H]3C2)c(C(=O)Nc2ccc(F)c(Cl)c2)c1N` (some centres undefined) stands less than 100 nM; under `CNC1CC2CC(c3nn(C)c(N)c3C(=O)Nc3ccc(F)c(Cl)c3)CC2C1` (centres undefined), “in the range around 300 nM”; under `Cn1nc(C2CC3CC(NS(C)(=O)=O)CC3C2)c(C(=O)Nc2ccc(F)c(Cl)c2)c1N` (centres undefined), less than 100 nM.
On to `Cn1nc(C2CC3CC(N4CCC4)CC3C2)c(C(=O)Nc2ccc(F)c(Cl)c2)c1N` (centres undefined), for which the EC50 result is “in the range around 300 nM”.
Same read-out and setting: under `Cn1nc([C@@H]2CC3CC(O)(CS(=O)(=O)CCO)C[C@@H]3C2)c(C(=O)Nc2ccc(F)c(Cl)c2)c1N` (some centres undefined) stands less than 100 nM.
On the same count and under the same terms, under `COc1cc(-c2nccs2)ccc1C1CCC(c2nn(C)c(N)c2C(=O)Nc2ccc(F)c(Cl)c2)C1` (centres undefined) stands “in the range around 5250 nM”; under `Cn1nc([C@@H]2CC3C[S+]([O-])C[C@H]3C2)c(C(=O)Nc2ccc(F)c(Cl)c2)c1N` (some centres undefined), “in the range around 5250 nM”; under `COc1cc(-c2nccn2C)ccc1[C@H]1CC[C@@H](c2nn(C)c(N)c2C(=O)Nc2ccc(F)c(Cl)c2)C1`, “in the range around 300 nM”.
On the same count and under the same terms, under `Cn1nc(C2CC3CN(C(=O)OC(C)(C)C)CC3C2)c(C(=O)Nc2ccc(F)c(Cl)c2)c1N` (centres undefined) stands less than 100 nM; under `CC(N1CC2CC(c3nn(C)c(N)c3C(=O)Nc3ccc(F)c(Cl)c3)CC2C1)C(F)(F)F` (centres undefined), less than 100 nM; under `Cn1nc(C2CC3CC(N4CCCC4)CC3C2)c(C(=O)Nc2ccc(F)c(Cl)c2)c1N` (centres undefined), less than 100 nM.
For the compound `COc1cc(C(=O)NCCS(C)(=O)=O)ccc1[C@H]1CC[C@@H](c2nn(C)c(N)c2C(=O)Nc2ccc(F)c(Cl)c2)C1`, the EC50 result was “in the range around 300 nM”.
`Cn1cc(C(=O)Nc2ccc(F)c(Cl)c2)c(C2CC3CC(O)(CS(C)(=O)=O)CC3C2)n1` (centres undefined): the EC50 result is “in the range around 5250 nM”.
Regarding `CCSC1CC2CC(c3nn(C)c(N)c3C(=O)Nc3ccc(F)c(Cl)c3)CC2C1` (centres undefined), the EC50 is less than 100 nM.
Same read-out and setting: under `Cn1nc([C@@H]2CC3CC(O)(CN4CCOCC4)C[C@H]3C2)c(C(=O)Nc2ccc(F)c(Cl)c2)c1N` (some centres undefined) stands “in the range around 300 nM”.
In the case of `COc1cc(-c2c[nH]cn2)ccc1[C@@H]1CC[C@@H](c2nn(C)c(N)c2C(=O)Nc2ccc(F)c(Cl)c2)C1`, the EC50 was less than 100 nM.
The same measure, in the same setting: under `COc1cccc([C@@H]2CC[C@H](c3nn(C)c(N)c3C(=O)Nc3ccc(F)c(Cl)c3)C2)c1` stands less than 100 nM; under `CCOC(=O)C=C1CC2CC(c3nn(C)c(N)c3C(=O)Nc3ccc(F)c(Cl)c3)CC2C1` (centres undefined), less than 100 nM.
